{"source": "patent US12089595B2", "about": "“Pseudomonas strains and their metabolites to control plant diseases” (T3 Bioscience, Inc., priority 2020, dated 2024)", "test_system": "the other soft pathogenetic bacteria (Pectobacterium, Dickeya dadantii)", "assay": "MIC antimicrobial assay", "assay_type": "cell-based", "data": [{"smiles": "CSC1=C(C)C(=O)C(=O)NC1=O", "note": "[RejuAgro A]", "values": [{"measurement": "MIC", "value": "20 to 40", "unit": "µg/mL"}]}]}
